Source: ChEMBL document CHEMBL1134533, “Design, synthesis, computational prediction, and biological evaluation of ester soft drugs as inhibitors of dihydrofolate reductase from Pneumocystis carinii” (J Med Chem, 2001)

Key:
[1] = molecular target: T1, Dihydrofolate reductase (Rattus norvegicus, UniProt Q920D2)
T1 sequence (Q920D2 whole entry): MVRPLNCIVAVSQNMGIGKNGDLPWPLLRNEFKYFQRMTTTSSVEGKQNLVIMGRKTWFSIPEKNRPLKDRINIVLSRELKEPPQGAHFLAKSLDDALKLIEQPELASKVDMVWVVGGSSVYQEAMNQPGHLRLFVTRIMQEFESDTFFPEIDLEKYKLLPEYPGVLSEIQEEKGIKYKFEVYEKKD
Description: Inhibitory concentration against dihydrofolate reductase DHFR from rat liver.

[2] = molecular target: T2, Bifunctional dihydrofolate reductase-thymidylate synthase (Toxoplasma gondii, UniProt Q07422)
T2 sequence (Q07422 whole entry): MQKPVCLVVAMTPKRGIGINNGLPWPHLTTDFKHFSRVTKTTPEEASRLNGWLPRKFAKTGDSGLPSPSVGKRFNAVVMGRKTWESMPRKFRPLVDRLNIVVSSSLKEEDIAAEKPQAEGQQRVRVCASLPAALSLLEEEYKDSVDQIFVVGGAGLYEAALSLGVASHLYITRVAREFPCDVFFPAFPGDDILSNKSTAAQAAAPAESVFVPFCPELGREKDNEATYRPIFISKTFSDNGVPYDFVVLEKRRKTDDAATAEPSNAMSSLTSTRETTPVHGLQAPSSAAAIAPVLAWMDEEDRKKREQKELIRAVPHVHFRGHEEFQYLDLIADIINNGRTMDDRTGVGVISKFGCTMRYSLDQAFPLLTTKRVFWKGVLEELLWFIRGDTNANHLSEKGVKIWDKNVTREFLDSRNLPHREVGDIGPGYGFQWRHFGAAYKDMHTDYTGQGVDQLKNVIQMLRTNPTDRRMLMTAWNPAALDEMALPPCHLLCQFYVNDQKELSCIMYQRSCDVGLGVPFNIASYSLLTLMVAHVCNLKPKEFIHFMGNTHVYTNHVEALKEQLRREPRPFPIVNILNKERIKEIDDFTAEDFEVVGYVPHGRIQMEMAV
Description: Inhibitory concentration against dihydrofolate reductase DHFR from Toxoplasma gondii

[3] = molecular target: T3, Dihydrofolate reductase (Pneumocystis carinii, UniProt P16184)
T3 sequence (P16184 whole entry): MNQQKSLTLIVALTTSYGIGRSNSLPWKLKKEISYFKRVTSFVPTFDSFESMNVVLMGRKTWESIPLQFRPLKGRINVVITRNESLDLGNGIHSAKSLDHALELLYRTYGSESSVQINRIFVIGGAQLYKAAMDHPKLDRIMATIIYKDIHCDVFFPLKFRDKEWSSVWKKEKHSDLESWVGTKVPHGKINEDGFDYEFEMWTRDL
Description: Inhibitory concentration against dihydrofolate reductase dihydrofolate reductase from Pneumocystis carinii.

[4] = molecular target: T4, Bifunctional dihydrofolate reductase-thymidylate synthase (Toxoplasma gondii) (UniProt Q07422); experiment: Relative activity against dihydrofolate reductase DHFR from Toxoplasma gondii
T4 sequence (whole entry): T2 sequence (Q07422 whole entry)

[5] = Ratio of the IC50 values for rlDHFR of the metabolite and pcDHFR of the soft drug
[6] = molecular target: T5, Dihydrofolate reductase (Pneumocystis carinii) (UniProt P16184); experiment: Inhibitory activity against dihydrofolate reductase dihydrofolate reductase from Pneumocystis carinii. at 32 uM concentration
T5 sequence (whole entry): T3 sequence (P16184 whole entry)

[7] = molecular target: T4, Bifunctional dihydrofolate reductase-thymidylate synthase (Toxoplasma gondii); experiment: Inhibitory activity against dihydrofolate reductase DHFR from Toxoplasma gondii at 32 uM concentration
[8] = molecular target: T6, Dihydrofolate reductase (Rattus norvegicus) (UniProt Q920D2); experiment: Inhibitory activity against dihydrofolate reductase DHFR from rat liver at 32 uM concentration
T6 sequence (whole entry): T1 sequence (Q920D2 whole entry)

[9] = molecular target: T4, Bifunctional dihydrofolate reductase-thymidylate synthase (Toxoplasma gondii); experiment: Inhibitory activity against dihydrofolate reductase DHFR from Toxoplasma gondii at 104 uM concentration
[10] = molecular target: T6, Dihydrofolate reductase (Rattus norvegicus); experiment: Inhibitory activity against dihydrofolate reductase DHFR from rat liver at 104 uM concentration
[11] = molecular target: T5, Dihydrofolate reductase (Pneumocystis carinii); experiment: Inhibitory activity against dihydrofolate reductase dihydrofolate reductase from Pneumocystis carinii. at 104 uM concentration
[12] = molecular target: T6, Dihydrofolate reductase (Rattus norvegicus); experiment: Inhibitory activity against dihydrofolate reductase DHFR from rat liver at 51 uM concentration
[13] = molecular target: T5, Dihydrofolate reductase (Pneumocystis carinii); experiment: Inhibitory activity against dihydrofolate reductase dihydrofolate reductase from Pneumocystis carinii. at 51 uM concentration
[14] = molecular target: T4, Bifunctional dihydrofolate reductase-thymidylate synthase (Toxoplasma gondii); experiment: Inhibitory activity against dihydrofolate reductase DHFR from Toxoplasma gondii at 51 uM concentration

Row | SMILES | IC50 [1] [nM] | IC50 [2] [nM] | IC50 [3] [nM] | other results
1 | Nc1nc(N)c2cc(CO)ccc2n1 | 40300 | 44900 | – | –
2 | COc1cc(NCc2ccc3nc(N)nc(N)c3c2C)cc(OC)c1OC [TRIMETREXATE] | 8 | – | – | –
3 | Nc1nc(N)c2cc(CNc3ccccc3)ccc2n1 | 440 | 100 | 980 | –
4 | Nc1nc(N)c2cc(C(=O)OCc3ccccc3)ccc2n1 | 420 | 360 | 2500 | Relative IC50 [4]: 1.2
5 | COc1cc(OC)cc(C(=O)OCc2ccc3nc(N)nc(N)c3c2)c1 | 350 | 150 | 460 | –
6 | Nc1nc(N)c2cc(COC(=O)c3ccccc3)cnc2n1 | 3900 | 1900 | 5450 | –
7 | Cc1c(COC(=O)c2ccccc2)cnc2nc(N)nc(N)c12 | 230 | 56 | 250 | Ratio [5]: 33
8 | Nc1nc(N)c2cc(COC(=O)c3ccccc3)ccc2n1 | 390 | 99 | 600 | Relative IC50 [4]: 3.9; Ratio [5]: 67
9 | COc1cc(C(=O)OCc2ccc3nc(N)nc(N)c3c2)cc(OC)c1OC | 26 | 50 | 560 | Relative IC50 [4]: 0.51
10 | Nc1nc(N)c2cc(C(=O)O)ccc2n1 | – | – | – | inhibition [6]: 11%; inhibition [7]: 16%; inhibition [8]: 3%
11 | COc1ccc(OC)c(C(=O)OCc2ccc3nc(N)nc(N)c3c2)c1 | 420 | 220 | 2400 | –
12 | COc1ccc(C(=O)OCc2ccc3nc(N)nc(N)c3c2)cc1OC | 110 | 66 | 510 | –
13 | CN(Cc1ccc2nc(N)nc(N)c2c1)c1ccccc1 | 69 | 11 | 96 | –
14 | Nc1nc(N)c2cc(CO)cnc2n1 | – | – | – | inhibition [9]: 9%; inhibition [10]: 19%; inhibition [11]: 17%
15 | COc1ccc(OC)c(Cc2cnc3nc(N)nc(N)c3c2C)c1 [PIRITREXIM] | 4.4 | – | – | –
16 | COc1ccc(C(=O)OCc2ccc3nc(N)nc(N)c3c2)c(OC)c1OC | 500 | 140 | 1400 | –
17 | Nc1nc(N)c2nc(CO)cnc2n1 | – | – | – | inhibition [12]: 2%; inhibition [13]: 10%; inhibition [14]: 12%
18 | Nc1nc(N)c2cc(COC(=O)Cc3ccccc3)ccc2n1 | 2300 | 1900 | – | –
19 | Nc1nc(N)c2cc(/C=C/C(=O)Oc3ccccc3)ccc2n1 | 1290 | 189 | – | –
20 | Nc1nc(N)c2nc(COC(=O)c3ccccc3)cnc2n1 | 7000 | 5800 | 9800 | –
21 | Cc1c(CO)cnc2nc(N)nc(N)c12 | 8500 | 3200 | – | –
22 | Nc1nc(N)c2cc(COC(=O)c3ccc(C(=O)O)cc3)ccc2n1 | – | 1000 | 1000 | –
